Results from patent publication US20060199803A1, “Compounds” (Kudos Pharmaceuticals Ltd, priority 2005, published 2006).

Molecular target: T1, mTOR protein (Homo sapiens, UniProt P42345)
T1 construct: mTOR protein was isolated from HeLa cell cytoplasmic extract by immunoprecipitation; endogenous in cells; host or cells: HeLa cell cytoplasmic extract (immunoprecipitation)
Experiment: mTOR enzyme activity assay (immunoprecipitated mTOR, recombinant PHAS-1 as substrate)
Assay type: biochemical
Conditions: mTOR isolated from HeLa cell cytoplasmic extract by immunoprecipitation; recombinant PHAS-1 substrate

SMILES | IC50 [nM]
C[C@H]1CCCCN1c1nc(N2CCCOCC2)c2cccnc2n1 [4ab] | < 1500
C[C@@H]1CN(c2nc(N3CCOC[C@@H]3C)c3cccnc3n2)C[C@H](C)O1 [4af] | < 1500
C[C@H]1COCCN1c1nc(N2CCOC(c3ccccc3)C2)nc2ncccc12 (stereo partly drawn) [4ag] | < 1500
C[C@H]1COCCN1c1nc(N2CCOCC2c2ccccc2)nc2ncccc12 (stereo partly drawn) [4ah] | < 1500
C[C@@H]1CN(c2nc(N3CCOCC3)c3cccnc3n2)C[C@H](C)O1 [4c] | < 1500
NC(=O)C1CCN(c2nc(N3CCOCC3)c3ccncc3n2)CC1 [4d] | < 1500
FC(F)(F)C1CCCN(c2nc(N3CCOCC3)c3cccnc3n2)C1 (stereo not drawn) [4h] | < 1500
CCC1CCCCN1c1nc(N2CCOCC2)c2cccnc2n1 (stereo not drawn) [4n] | < 1500
OCCC1CCCCN1c1nc(N2CCOCC2)c2cccnc2n1 (stereo not drawn) [4o] | < 1500
c1cnc2nc(N3CCCCC3)nc(N3CCOCC3)c2c1 [4y] | < 1500

Other lines, results leading:

IC50 [nM] | SMILES
< 1500 | C[C@H]1COCCN1c1nc(N2CCOC(CN3C(=O)c4cccc(N)c4C3=O)C2)nc2ncccc12 (stereo partly drawn) [5g]
< 1500 | C[C@H]1COCCN1c1nc(N2CCOC(Cn3c(=O)oc4ccccc43)C2)nc2ncccc12 (stereo partly drawn) [5h]
< 1500 | C[C@H]1COCCN1c1nc(N2CCOC(CNC(=O)c3cccs3)C2)nc2ncccc12 (stereo partly drawn) [5k]
< 1500 | COC(=O)C(=O)NCC1CN(c2nc(N3CCOC[C@@H]3C)c3cccnc3n2)CCO1 (stereo partly drawn) [5m]
< 1500 | C[C@H]1COCCN1c1nc(N2CCOC(COc3nccc4ccccc34)C2)nc2ncccc12 (stereo partly drawn) [5z]
